row,melting point [°C],Structure (SMILES)
1,56 to 59,CC(C)NC(=O)c1c(OS(C)(=O)=O)cccc1C(=O)O
2,173 to 175,Cc1ccc(Cn2c(-c3ccccc3)nc(Cl)c2CO)cc1
3,> 300,CN(C)c1ccc(-c2[nH]nc3c2C(=O)c2c(NC(=O)CN4CCOCC4)cccc2-3)cc1
4,151 to 153,C=CC(C)(C)C(O)(COc1ccc(-c2ccccc2)cc1)Cn1ccnc1 (centres undefined)
5,150 to 153,O=C(CNc1ccccc1F)Nc1ccc([N+](=O)[O-])cc1
6,> 300,CCOC1c2ccccc2-c2nccnc21 (centres undefined)
7,138 to 139,CCOC(=O)c1cnn(-c2ccc(OCC(C)C)c(C#N)c2)c1
8,129 to 133,Nc1ccccc1N1CCN(C=O)CC1
9,192 to 193,NC(=O)c1ccc(NC2CCN(Cc3ccccc3)CC2)cc1
10,136,O=C1N(c2ccccc2Br)Cc2cnc(Nc3ccccc3)nc2N1c1cccc(CO)c1
11,254,CCc1cccc2c(=O)c3c(cnn3C)[nH]c12
12,208 to 211,O=C1NCCN1c1ccc(S(=O)(=O)Nc2cccc(Oc3ccccc3)c2)cc1
13,125 to 127,COC(=O)c1ccc([C@H](C)NC(C)=O)cc1
14,100 to 102,O=C(CCc1ccccc1)c1cccnc1Nc1ccc(F)cc1
15,248 to 250,O=C1CCC(N2Cc3c(NCc4ccco4)cccc3C2=O)C(=O)N1 (centres undefined)
16,158,CC(Oc1ccc(Cl)cc1[N+](=O)[O-])c1ccnc2ncnn12 (centres undefined)
17,96 to 98,Cc1cc(OCC(=O)c2ccc(C(C)C)cc2)cc(C)c1C
18,203 to 208,C[C@H](c1ccccc1)N1CC(=NO)C2(CCC2)C1=O
19,145 to 146,O=C(C=Cc1c(-c2ccccc2)nn2ccccc12)N1CCCC[C@@H]1CCO

row,melting point [°C],Structure (SMILES)
1,126 to 129,O=C1NC(=O)C(Cc2ccc(OCCON=Cc3ccccc3)cc2)S1 (centres undefined)
2,254 to 257,O=C(O)c1coc(-c2ccc(Cl)c(C(=O)NCC34CC5CC(CC(C5)C3)C4)c2)n1
3,128 to 131,CC(Br)c1ccc(-c2nc3ccccc3o2)cc1 (centres undefined)
4,160 to 161,CCOC(=O)[C@@H](O)[C@@H](NC(=O)c1ccccc1)c1ccccc1
5,178 to 179,COc1cc(C2=CCCCC2)c(Cl)cc1C(=O)N1Cc2ccc(C(=O)N(C)Cc3cccnc3)n2Cc2ccccc21
6,200 to 203,O=C(O)CC(Br)C(Br)c1ccc(-c2ccccc2)cc1 (centres undefined)
7,196 to 197,O=C(O)C1CCc2c([nH]c3ccc(Cl)cc23)C1 (centres undefined)
8,103 to 105,CCCCc1nc2cc(-c3ccccc3)cc(C(=O)OC)c2n1Cc1ccccc1Cl
9,138 to 140,COc1ccc(C2CCN(c3c(C)c(C)c4c(c3C)C(Nc3ccccc3)C(C)(C)O4)CC2)cc1OC (centres undefined)
10,198 to 205,COc1ccc(C(=O)Nc2c(Cl)cncc2Cl)c2c1OCC2CC(=O)OCc1ccccc1 (centres undefined)
11,119 to 122,c1ccc2c(c1)NCCc1nccn1-2
12,298 to 299,O=C(O)c1ccc2c(c1)Cc1ccccc1O2
13,123,O=C(O)CCCc1ccccc1CC1C(=O)CC(=O)C1=O (centres undefined)
14,90 to 92,COc1ccc(-c2cc(Cl)c3ccccc3n2)cc1C
15,311 to 313,O=C1Nc2ccc(Cl)nc2Oc2ccccc21
16,131 to 132,N#CN1CCC2(CC1)CN(c1ccccc1F)c1ccccc12
17,> 300,O=C(Nn1c(=O)c(=O)[nH]c2ccc3ccccc3c21)c1ccccc1
18,101 to 102,COc1cc(CN(C)c2nn(-c3ccccc3)cc2C=O)ccc1OCc1nc(-c2ccco2)oc1C
19,137 to 138,CC(C)CN1CCc2ccc(C(=O)CCC(=O)N3CCC(c4ccc(Cl)cc4)CC3)cc2CC1

# The remaining lines, values behind:
row,Structure (SMILES),melting point [°C]
1,CNc1cc(NS(=O)(=O)c2cccc(Cl)c2)nc(NC)n1,167 to 168
2,Cc1c(NC(=O)c2ccc(-c3ccc(Cl)s3)cc2F)ccc2cc(CN3CCCCC3)cnc12,205 to 206
3,CCOC(=O)c1nc(S)n2c1c(=O)n(C)c1cc(C(F)(F)F)ccc12,282
4,O=S(=O)(Nc1ccc(F)cc1C(=NOc1ccc(Cl)cc1)c1ccccc1)C(F)(F)F,90 to 93
5,c1coc(-c2nnc(Sc3cnccn3)o2)c1,92 to 93
6,O=C1c2c(O)ccc(O)c2C(=O)c2c(NCCNCCO)ccc(O)c21,196 to 198
7,Cn1nc(C(F)F)cc1O,133
8,Cc1ccc(S(=O)(=O)NC(=O)OCCc2ccc(-n3c(CCC(=O)c4ccccn4)nc4cc(C(F)(F)F)c(Cl)cc43)cc2)cc1,234
9,CCc1cc(SCc2cccc3sc(-c4ccc(C(F)(F)F)cc4)nc23)ccc1OCC(=O)O,89 to 92
10,COc1cccc(Oc2cccnc2C#N)c1,112 to 114
11,CCc1cc([N+](=O)[O-])c(NC(CC)COC)c([N+](=O)[O-])c1COC (centres undefined),54 to 55
12,CC(C)c1cnc(NC(=O)Cc2csc(N)n2)s1,201 to 203
13,O=C(c1ccc(F)cc1)C1CCN(CCN(C(=O)c2ccc([N+](=O)[O-])cc2)c2cccc(C(F)(F)F)c2)CC1,123 to 137
14,O=C1c2cccc(SCCCCCCO)c2C(=O)c2cccc(SCCCCCCO)c21,195 to 196
15,COc1ccc(C(=O)Nc2ccc(F)c(F)c2)cc1NCc1cccnc1,148 to 149
16,CC(C)CCCC(C)C1CCC2C3CC=C4CC(OCCO)CCC4(C)C3CCC12C (centres undefined),92 to 95
17,CCc1nn(C2CN(C(C)C)C2)c(C(N)=O)c1[N+](=O)[O-],153 to 156
18,Cc1ccn(C)c(=S)n1,138 to 140
19,CCCCCCCCCCCCOc1c(OC)cc(N)c2nccc(C)c12,53 to 55
20,COc1cccc(-c2ccc3ccc(NC(=O)c4cccc(Br)c4)nc3n2)c1,104
21,Cc1cccc2c1N(CC(=O)N1CC3CCC(CC3)C1)C(=O)C(NC(=O)Nc1cccc(-c3nnn[nH]3)c1)N=C2c1ccccc1F (centres undefined),210 to 213

row,Structure (SMILES),melting point [°C]
1,COCCOCOc1ccc2cc(C(=O)CNCc3cccc(-c4ccc(Nc5ccccc5C(=O)O)cc4)c3)ccc2c1,72
2,Cc1nnc(OC[C@H]2CN(c3ccc(C4=CCOCC4)c(F)c3)C(=O)O2)o1,146 to 147
3,c1ccc(COc2ccc3c(ccn3Cc3ccncc3)c2)cc1,124 to 125
4,CN(C)CC#Cc1ccc2c(Nc3ccc(Cl)cc3Cl)c(C#N)cnc2c1,144 to 145
5,CCOC(=O)c1c[nH]c2nc(-c3ccncc3)c(F)cc2c1=O,280 to 285
6,OC[C@H](O)CN1CCC[C@@H](Nc2nccc(-c3c(-c4cccc(O)c4)nc4sccn34)n2)C1,185 to 187
7,CCC(=O)Nc1ccc(-c2ccnc3c(C(=O)c4ccco4)cnn23)cc1,235 to 237
8,Cc1ccc(-c2ccc3c(c2)C=C(C(=O)Nc2ccc(CN(C)C4CCOCC4)cc2)CCN3C)cc1,178 to 181
9,Cc1ccc(C(=S)CCCCCl)cc1,87 to 89
10,Cc1c(C2=NNC(=O)SC2C)ccc2c1C(C)(C)C(=O)N2 (centres undefined),279
11,CCOC(=O)C(Cc1c(OCC)noc1-c1ncn(C(c2ccccc2)(c2ccccc2)c2ccccc2)n1)(NC(C)=O)C(=O)OCC,145 to 149
12,CN(CC(=O)OCCCCNc1cccc2c1C(=O)c1ccccc1C2=O)C(=O)OC(C)(C)C,90
13,O=c1ccn(C2CCCO2)c(=O)[nH]1 (centres undefined),99 to 101
14,O=C(O)c1ccc(NC(=O)c2ccc(Br)nc2)nc1,270 to 272
15,CN(C)C1(c2ccccc2)CCC(c2[nH]c3ccccc3c2Cc2ccccc2)CC1 (centres undefined),194 to 199
16,CCOC(=O)CC[C@H](NC1CCC(CCC2CNc3nc(NC(=O)C(C)(C)C)nc(O)c3C2)CC1)C(=O)OCC (some centres undefined),160 to 170
17,CS(=O)(=O)c1ccc(-c2nc(C(F)(F)F)nn2-c2ccc(O)cc2)cc1,246
18,CCCCCCCCCCCCCCCCC(CO)OC (centres undefined),36 to 38
19,COc1ccccc1Oc1c(NS(=O)(=O)c2ccc(C(C)(C)C)cc2)nc(NCCN(C)C)nc1OCCOC1CCCCO1 (centres undefined),82 to 86
20,COC(=O)Nc1ccc(OC)c(OC)c1,83 to 87
21,CCCCNC(=O)n1c(=NC(F)(F)F)oc2ccc([N+](=O)[O-])cc21,121 to 122

row,Structure (SMILES),melting point [°C]
1,CCOC(=O)c1cnc2c(c1O)CCCCCCCCCC2,182 to 190
2,COCCn1nc2c(N)nc3ncccc3c2c1CC1CCOCC1,230 to 233
3,NCCCCc1c[nH]c(-c2ccc(F)cc2)c1-c1ccncc1,185 to 187
4,NC(=O)Cc1cnc(Nc2n[nH]c3ccc(-c4ncccc4Cl)cc23)s1,> 230
5,CSC(Nc1ccc2c(c1)OCO2)=C(C#N)S(C)(=O)=O,168 to 170
6,CC1c2cc(C(C)(C)C)cc(C(C)(C)C)c2O[PH](=O)Oc2c1cc(C(C)(C)C)cc2C(C)(C)C (centres undefined),209
7,CCOC=C1C=C(C(C)(C)C)C(=O)C(C(C)(C)C)=C1,114 to 117
8,COC(=O)c1cnc(N)cn1,229 to 231
9,Cc1cccc(-c2nc(N)sc2-c2ccnc(-c3ccc(OCc4cn(C)cn4)cc3)c2)n1,226 to 228
10,CC(C)(C)OC(=O)N[C@@H]1CCC[C@@H]1O (relative stereo),64 to 65
11,COc1cc2c3ccc(OC)c(OC)c3n(S(=O)(=O)c3cc(Cl)ccc3Cl)c2cc1OC,221 to 224
12,CN1C(=O)c2c(F)c(F)c(F)c(F)c2C1=O,132
13,Cc1ccc(OCc2nc3nccnc3c(=O)[nH]2)cc1,232 to 233
14,O=C1Nc2ccc(Cl)cc2[C@@](/C=C/C2CC2)(C(F)(F)F)O[C@H]1C1CC1 (relative stereo),143 to 144
15,CC1OC(O)CC(NC(=O)C(F)(F)F)C1C (centres undefined),132 to 134
16,COc1ccc(-c2cc(Cl)cc3c2NC(CN)CO3)c(Cl)c1 (centres undefined),105
17,CCCc1nn(-c2ccc(C(F)(F)F)cn2)cc1CCCOc1ccc(CC(=O)O)cc1,101 to 102
18,COC(=O)C1CCC2C3CCC4CC(O)C(OC)CC4(C)C3C(NC3CCCCC3)CC12C (centres undefined),141 to 143
19,CSC1C=C2C=CC=CN2N1[N+](=O)[O-] (centres undefined),225

# — a melting point compilation (Tetko et al.; mined from patent text by program, amines drawn as free bases though some values may be those of a salt)
